# In patent US20240043396A1, “METHODS OF TREATING OCULAR FIBROTIC PATHOLOGIES” (Mayo Foundation for Medical Education and Research, priority 2021, published 2024):
# Columns and labels:
# Assay type in all cases: cell-based, human
# ARPE-19 cells [1] = test: TGFβ-induced EMT in cultured RPE cells (morphology, qPCR of mesenchymal/profibrotic genes); settings: ARPE-19, 5 ng/ml TGF-β1, 24 h, 0% FBS; 1 μM CTC-6 or 10 μM MS-9
# Method: Cell culture: ARPE-19 cells were purchased from ATCC (Manassas, VA, USA) were cultured in Eagle's minimal essential medium (EMEM) containing 10% fetal bovine serum (FBS) and antibiotic-antimycotic (Thermo Fisher Scientific) unless otherwise noted.
# qPCR analysis: ARPE-19 cells were plated on tissue culture dishes (Thermo Fisher Scientific, 60×15 mm) in EMEM containing 10% FBS and allowed to attach and grow for 24 h. Cells were stimulated with 5 ng/ml TGF-β1 and 10 μM MS-9 or 1 μM CTC-6 in EMEM containing 0% FBS for 24 h prior to RNA isolation using the RNeasy Plus Mini Kit (Qiagen, Hilden, Germany) according to the manufacturer's instructions. Isolated RNA (500 ng) was then used to synthesize cDNA using SuperScript VILO (Invitrogen, Carlsbad, CA, USA). Quantitative PCR (qPCR) was performed using FastStart Essential DNA Green Master and analyzed with LightCycler 96 (Roche, Basel, Switzerland). Data are expressed as a fold change by ΔΔCt relative to the level of the GAPDH housekeeping gene, and normalized to control.
# As expected, TGFβ stimulated morphological changes consistent with EMT (FIG. 2A) and enhanced expression of ECM genes: COL1A1 and COL3A1, connective tissue growth factor (CTGF) and alpha-smooth muscle actin (ACTA2) (FIG. 2B).
# ARPE-19 cells [2] = test: qPCR of profibrotic gene expression in ARPE-19 cells ±TGFβ
# Method: Cell culture: The human RPE cell line ARPE-19 was purchased from ATCC and cultured in Dulbecco's Modified Eagle Medium/Nutrient Mixture F-12 (DMEM/F-12) supplemented with 2.50 mM L-Glutamine, 15 mM HEPES Buffer, 10% fetal bovine serum (FBS), and 1% Antibiotic-Antimycotic (Gibco), unless otherwise noted. Cells were maintained in a humidified 37° C., 5% CO2 incubator. All experiments were performed with cells at passage 3-6. Chemicals and Reagents: dimethyl sulfoxide (DMSO) was purchased from Fisher Scientific and used to solubilize fenoldopam and SCH 39166. 2-mercaptoethanol was purchased from Bio-Rad Laboratories and added to RLT buffer prior to RNA isolation, as per Qiagen instructions. Fenoldopam and SCH 39166 were purchased from Cayman Chemical Company. TGFβ was purchased from InvivoGen. Fenoldopam, like a majority of […], has a characteristically short half-life. To take this into account we changed media daily to assess the efficacy of fenoldopam to inhibit fibrotic activation in vitro. RNA Isolation/qPCR Analysis: ARPE-19 cells were plated into 12 well plates (100,000 cells/well) and allowed to attach. Media was removed and replaced with the media specified in the “Cell Culture” section above, minus FBS. Cells were treated for 24 hours ±TGFβ (10 ng/mL), 10 μM fenoldopam, and 3 μM SCH 39166. RNA was isolated using the RNeasy Plus Mini Kit (Qiagen) and the manufacturer's protocol. Isolated RNA was converted to cDNA using the SuperScript VILO cDNA Synthesis Kit (Invitrogen) and the PTC-200 Peltier Thermal Cycler (MJ Research). Quantitative PCR (qPCR) was performed using FastStart Essential DNA Green Master (Roche) and LightCycler 96 (Roche).
# ARPE-19 cells [3] = test: LIVE/DEAD assay; settings: ARPE-19, ±2% FBS, 10 μM fenoldopam, 4 days
# Method: (§1) Cell culture: The human RPE cell line ARPE-19 was purchased from ATCC and cultured in Dulbecco's Modified Eagle Medium/Nutrient Mixture F-12 (DMEM/F-12) supplemented with 2.50 mM L-Glutamine, 15 mM HEPES Buffer, 10% fetal bovine serum (FBS), and 1% Antibiotic-Antimycotic (Gibco), unless otherwise noted. Cells were maintained in a humidified 37° C., 5% CO2 incubator. All experiments were performed with cells at passage 3-6. Proliferation and Live/Dead Assays: ARPE-19 cells were plated into 96-well plates (1,000 cells/well) and allowed to attach. Media was removed and replaced with the media specified in the “Cell Culture” section above, with reduced FBS. Cells were treated for four days ±2% FBS, and 10 μM fenoldopam, replacing media conditions every 24 hours for wells treated with fenoldopam. After four days, CellTiter-Fluor™ (Promega) was added to each well according to the manufacturer and measured on a Flexstation 3 (Molecular Devices) plate reader for the proliferation assay. For the LIVE/DEAD™ assay, each component of the kit (Thermo Fisher Scientific) was added, then cells were incubated for 30 minutes. Fluorescent images were then taken using a Cytation 5 imaging reader (BioTek) and quantified for cytotoxicity/viability.
# ARPE-19 cells [4] = test: Wound healing (wound migration) assay; settings: ARPE-19, ±TGFβ 10 ng/mL, 10 μM fenoldopam, 0-72 hours, media changed every 24 hours
# Method: Cell culture: The human RPE cell line ARPE-19 was purchased from ATCC and cultured in Dulbecco's Modified Eagle Medium/Nutrient Mixture F-12 (DMEM/F-12) supplemented with 2.50 mM L-Glutamine, 15 mM HEPES Buffer, 10% fetal bovine serum (FBS), and 1% Antibiotic-Antimycotic (Gibco), unless otherwise noted. Cells were maintained in a humidified 37° C., 5% CO2 incubator. All experiments were performed with cells at passage 3-6. Wound Healing Assay: ARPE-19 cells were plated confluent into a 12-well plate (300,000 cells/well) and allowed to attach. Cells were exposed to a single scratch made with a p200 pipette tip. Media was removed and replaced with the media specified in the “Cell Culture” section above, without FBS. Cells were treated ±TGFβ (10 ng/mL), 10 μM fenoldopam replacing media conditions every 24 hours for wells treated with fenoldopam. Cells were imaged after treatment for 0, 24, 48, and 72 hours. Cells were imaged with an inverted phase-contract microscope and wound area was measured using ImageJ software as previously described.
# ARPE-19 cells [5] = test: Proliferation assay (CellTiter-Fluor); settings: ARPE-19, ±2% FBS, 10 μM fenoldopam, 4 days
# Method: as §1
# ARPE-19 cells [6] = test: Fibronectin deposition (immunofluorescence); settings: ARPE-19, ±TGFβ 10 ng/mL, 10 μM fenoldopam, 4 days
# Method: Cell culture: The human RPE cell line ARPE-19 was purchased from ATCC and cultured in Dulbecco's Modified Eagle Medium/Nutrient Mixture F-12 (DMEM/F-12) supplemented with 2.50 mM L-Glutamine, 15 mM HEPES Buffer, 10% fetal bovine serum (FBS), and 1% Antibiotic-Antimycotic (Gibco), unless otherwise noted. Cells were maintained in a humidified 37° C., 5% CO2 incubator. All experiments were performed with cells at passage 3-6. Fibronectin Deposition: ARPE-19 cells were plated into 96-well plates (10,000 cells/well) and allowed to attach. Media was removed and replaced with the media specified in the “Cell Culture” section above, without FBS. Cells were treated for four days ±TGFβ (10 ng/mL), 10 μM fenoldopam, replacing media conditions every 24 hours for wells treated with fenoldopam. Cells were fixed with 10% neutral buffered formalin (Sigma-Aldrich) for 15 minutes. Cells were permeabilized with 0.25% Triton X-100 (Sigma-Aldrich) and blocked with 1% BSA for 1 hour. Cells were incubated with mouse monoclonal IgG3 primary antibodies against fibronectin (Santa Cruz Biotechnology), which were diluted 1:400 in 0.25% Triton X-100 (Sigma-Aldrich) with 1% BSA. Cells were incubated with primary antibodies either in 4° C. overnight or at room temperature for 2 hours. […] Immunofluorescence was measured using a Cytation 5 imaging reader (BioTek).
compound,measurement,setting,value
NCC1OC(c2ccncc2)Cc2c1ccc(O)c2O (centres unmarked) [CTC-6],"markers of EMT (morphology; COL1A1, COL3A1, CTGF, ACTA2 expression)",ARPE-19 cells [1],blocked markers of EMT
CN1CCc2cc(Cl)c(O)cc2[C@H]2c3ccccc3CC[C@@H]21 [SCH 39166],effect of D5 antagonist alone in the presence of TGFβ on profibrotic gene expression,"ARPE-19 cells [2]; ARPE-19, TGFβ 10 ng/mL + 3 μM SCH 39166, 24 hours",no effect
same,effect of D5 antagonist on the antifibrotic effects of fenoldopam (profibrotic gene expression),"ARPE-19 cells [2]; ARPE-19, TGFβ 10 ng/mL + 10 μM fenoldopam + 3 μM SCH 39166, 24 hours",surmount the antifibrotic effects of fenoldopam
Oc1ccc(C2CNCCc3c2cc(O)c(O)c3Cl)cc1 (centres unmarked) [fenoldopam],antifibrotic response in live/dead assay,ARPE-19 cells [3],robust antifibrotic response
same,antifibrotic response in wound migration assay,ARPE-19 cells [4],robust antifibrotic response
same,antifibrotic response in proliferation assay,ARPE-19 cells [5],robust antifibrotic response
same,"expression of COL1A1, ACTA2, and FN1 compared to TGFβ exclusively","ARPE-19 cells [2]; ARPE-19, TGFβ 10 ng/mL, 10 μM fenoldopam, 24 hours",significant decrease
same,antifibrotic response in fibronectin deposition assay,ARPE-19 cells [6],robust antifibrotic response
